The results in this text go back to a melting point compilation (Tetko et al.; mined from patent text by program, amines drawn as free bases though some values may be those of a salt).

Take `Cc1nc(-c2ccc(C(F)(F)F)cc2)oc1COc1ccc(/C=C/C(=O)O)cc1`: the melting point (commonly the temperature, or range, at which the solid turns liquid) was found to be 193 °C.
Take `CCCc1c(O)ccc2c(=O)cc(C(=O)OC)oc12`: the melting point is 222 to 224 °C.
On to `Cc1c(N2CCN(Cc3ccccc3)C(C)C2)c(F)cc2c(=O)c(C(=O)O)cn(C3CC3)c12` (stereo not drawn), for which the melting point fell in the range of 170 to 171 °C.
Consider `CC(=O)SCC(Cc1ccccc1)C(=O)Nc1c(Cl)cccc1C(=O)O` (stereo not drawn), for which the melting point was in the range of 123 to 127 °C.
As to `COC(=O)c1cc(C(=O)N[C@@H](Cc2ccccc2)[C@H]2CN(C3(c4cccc(C(F)(F)F)c4)CC3)C(=O)O2)n2c1CN(C(=O)OC(C)(C)C)CC2`, the melting point worked out at 106 °C.
Molecule `N#CC1(Nc2ccccc2)CCN([C@@H]2CC[C@H]3CCCc4cccc2c43)CC1` (racemic) gave a melting point of 142 °C.
`CN1CCN(c2cc3c(Br)cccc3c(=O)[nH]2)CC1CO` (stereo not drawn) returned a melting point of 200 to 202 °C.
For `COc1ccc([C@@H]2Sc3cc(Oc4ccc(F)cc4)ccc3N(CCN(C)C)C(=O)[C@@H]2OC(C)=O)cc1F`, the melting point was 128 to 132 °C.
In turn, `CN[C@@H](CO)Cc1ccccc1` came in with a melting point of 69 °C.
Consider `CC(C)c1nc(C(C)C)c(CSc2ccc(F)cc2)c(-c2ccc(F)cc2)c1CO`, for which the melting point lay within 119 to 121 °C.
In the case of `CC1Cc2cccc(-c3cccc4ccccc34)c2C1=O` (stereo not drawn), the melting point lay within 104 to 105 °C.
On to `CNC(=O)c1cc(-c2ccc(OC)cc2)nn(CC2CCCC2)c1=O`, for which the melting point was in the range of 107 to 108 °C.
Take `NS(=O)(=O)c1nn(-c2ccccn2)cc1Br`: the melting point lay in the range of 145 to 146 °C.
With `C[C@@](O)(CO)COc1cccc(-c2noc3ccsc23)c1`, the melting point was in the range of 97 to 98 °C.
As to `CCc1nnc(-c2ccc(NC)cc2)n1-c1ccc(OC)cc1`, the melting point is 198 °C.
In turn, `CN1CCN2c3ccccc3Cn3cccc3C2C1` (stereo not drawn) came in with a melting point of 98 to 100 °C.
`Clc1ccc(Nc2ncc(CCc3cccnc3)c3ccccc23)cc1` gave a melting point of 157 to 158 °C.
In the case of `CCOC(=O)N1CCCc2nc3ccccc3c(O)c2C1`, the melting point came to 285 °C.
As to `CCOc1ccc2c(c1C=NO)OCO2`, the melting point fell in the range of 161 to 164 °C.
`CC(C)N(CCN1C(=O)/C(=N/NC(N)=O)c2ccc(Cl)cc21)C(C)C` showed a melting point of 205 to 208 °C.
As for `CC(=O)Nc1nc2c(Oc3cc(-c4ccc(C(F)(F)F)cc4O)ncn3)cccc2s1`, the melting point was 302 to 304 °C.
The figure for `COc1ccc(C(=O)n2c(Br)c(Br)c(C#N)c2Br)cc1` is 86 to 89 °C; for `CCCCCCCC(O)CC(=O)O` (stereo not drawn) it is 55 to 56 °C; for `CN(C(=O)c1ccc2nonc2c1)C1CCN(S(C)(=O)=O)CC1` it is 177 to 179 °C.
The figure for `CC(C)(CCCCC(=O)CCCCC(C)(C)C(=O)O)C(=O)O` is 60 to 61.5 °C.
The figure for `Nc1ccc(-c2nc(C(=O)Nc3nccs3)c(-c3ccc(C(F)(F)F)cc3)[nH]2)cc1` is 175 to 177 °C; for `CC(C=CC=C(C)c1cc(C(C)(C)C)cc(C(C)(C)C)c1)=CC(=O)O` it is 196 to 198 °C; for `CCC(=O)N(C)c1cccc(-c2ccc3nnc(C)n3n2)c1` it is 150 to 152 °C.
`CCCCc1ccc(CCCCS(=O)(=O)Cc2cccc(/C=C/c3cccc(NC(=O)CC(CC)(CC)C(=O)O)c3)n2)cc1`: the melting point lay in the range of 155 to 157 °C.
Consider `COC(=O)C1=C(O)c2c(c3cc(C)ccc3n2C)S(=O)(=O)N1C`, for which the melting point lay within 144 to 145 °C.
Under `CCSc1ccnc(Cl)c1C#N` stands 97 to 98 °C; under `CCC(CC)Nc1c(C)c(C)nc2c1c(C)nn2-c1c(C)cc(C)cc1C`, 201 to 205 °C.
The figure for `CCS(=O)(=O)C1=NCN(S(=O)(=O)CC)S1` is 42 °C; for `CCCOc1cc(NC(=O)C[C@H]2O[C@H](c3cccc(OC)c3OC)c3cc(Cl)ccc3N(CC(C)(C)CO)C2=O)cc2cc(C(=O)O)oc12` it is 175 to 177 °C; for `Cc1ccccc1-n1c(-c2cc(-c3ccc(S(C)(=O)=O)cc3)c(N3CCOCC3)s2)nc2ccccc2c1=O` it is 255 to 258 °C.
For the molecule `O=C(Nc1ccc(Oc2ccnc(NCCN3CCCCC3)n2)c2ccccc12)c1cc(F)cc(N2CCOCC2)c1`, the melting point lay in the range of 98 to 100 °C.
Consider `CC(C)(C)C(=O)OCNc1nc(OCc2ccc(F)cc2)ncc1F`, for which the melting point lay within 134 to 135 °C.
The molecule `O=C1C(=O)N2c3c(cc(Cl)cc31)CCC2c1ccccc1` (stereo not drawn) yielded a melting point of 173 to 174 °C.
For the molecule `COc1c(C(=O)O)cc(Cl)c2c1CCCN2`, the melting point lay within 129 to 132 °C.
Molecule `O=CCCc1cnc(-c2ccccc2)s1` gave a melting point of 192 °C.
The molecule `O=[N+]([O-])c1ccc(-n2cnc(CO)c2)c(F)c1` came in with a melting point of 157 to 159 °C.
Under `O=C(O)c1cc2cc(Cl)cc(Cl)c2nc1N[C@@H](Cc1ccccc1)C(=O)O` stands 218 to 223 °C.
In the case of `Nc1nc2ccccc2c2c1nc1n2CCCN1`, the melting point was more than 250 °C.
Under `CCCC1CCC(O)(c2ccc(CCCCc3ccc(C4(O)CCC(CCC)CC4)cc3)cc2)CC1` (stereo not drawn) stands 136 °C; under `CC(=O)c1cccc(Oc2ncccc2C(=O)NCC2CCC(C(C)O)CC2)c1` (stereo not drawn), 101 to 103 °C; under `CN(C)CC(O)c1c(-c2ccc3ccccc3c2)[nH]c2ccccc12` (stereo not drawn), 172 to 174 °C.
Regarding `O=C1c2c(OCc3ccccc3)c(OCc3ccccc3)cc(OCc3ccccc3)c2-c2nn(CCNCCO)c3ccc(Cl)c1c23`, the melting point was 164 to 167 °C.
In the case of `C#CCSc1ncc(Cl)cn1`, the melting point worked out at 66 °C.
`CC(Cc1ccc(S(=O)(=O)NC(=O)NC2CCCCC2)cc1)NC(=O)N1Cc2ccccc2C1=O` (stereo not drawn) came in with a melting point of 197 to 198 °C.
`COc1cc2c(cc1[N+](=O)[O-])NC(=O)CN(C(=O)OCc1ccccc1)C2` had a melting point of 191 °C.
Turning to `Cc1nc(N)nc(N)c1OCCCc1ccccc1`, the melting point lay within 160 to 162 °C.
`Cc1nc(Nc2ccccc2)sc1-c1ccncc1` gave a melting point of 168 to 170 °C.
As to `CC(C)Oc1ccc(-n2c(C(=O)O)c(Cl)c3cc(Oc4ccc(C(F)(F)F)cc4)ccc32)cc1`, the melting point fell in the range of 148 to 150 °C.
Molecule `O=C(Nc1ccc2[nH]ncc2c1)O[C@@H](c1cccc(I)c1)[C@@H]1CCCCN1` showed a melting point of 126 °C.
For `CC(=O)c1ccc(OCCCBr)c(Br)c1`, the melting point fell in the range of 83 to 84 °C.
Regarding `CCCNC(=O)N1N=C(c2ccc([N+](=O)[O-])cc2)c2cc(Cl)ccc2CC1C` (stereo not drawn), the melting point was 186 to 187 °C.
Turning to `O=C(NC1(C2CC2)CC1)c1c(NC(=O)c2cc(Cl)nn2-c2ncccc2Cl)c(Cl)cc2cn[nH]c12`, the melting point is 173 to 175 °C.
Consider `NCC1CCCC(CNc2ncc3ncnc(Nc4ccc(F)c(Cl)c4)c3n2)C1` (stereo not drawn), for which the melting point was 145 to 148 °C.
Under `CCOC(=O)Cc1ccc2oc(-c3ccc(Cl)cc3)nc2c1` stands 81 to 82 °C; under `NC(=O)c1ncn2c1[C@@H]1CCN1C(=O)c1ccccc1-2`, 228 to 230 °C; under `CCOC(=O)c1ncn2c1[C@@H]1CCN1C(=O)c1c(Cl)cccc1-2`, 184 to 185 °C.
In the case of `COCCCNc1ccc([N+](=O)[O-])cc1`, the melting point fell in the range of 57 to 59 °C.
Regarding `O=C1N(CC2CCCCO2)c2ccccc2C12COc1cc3c(cc12)OCCO3` (stereo not drawn), the melting point lay in the range of 158 to 166 °C.
As to `COC(=O)c1nc(C)n2c1CN=C(c1ccccc1Cl)c1cc(Cl)ccc1-2`, the melting point was 225 to 227 °C.
Molecule `NC(Cc1c[nH]c2c(Br)cccc12)C(=O)O` (stereo not drawn) had a melting point of more than 260 °C.
The molecule `CCOC=CC(=O)Nc1cccc(C(=O)O)c1` yielded a melting point of 200 to 202 °C.
As to `CCOCc1nc2c(N)nc3ccccc3c2n1CCCCS(N)(=O)=O`, the melting point lay within 155 to 158 °C.
On to `COCCOc1nc2cc(-c3ccc(OC)cc3)nnc2c2ccccc12`, for which the melting point lay within 148 to 150 °C.
`NS(=O)(=O)c1cc(C(=O)O)cc(S(=O)(=O)Cc2ccccc2)c1Cl` had a melting point of 236 to 237 °C.
Under `CCCCC1(CCCC)CS(=O)(=O)c2ccc(N(C)C)cc2[C@@H](c2ccc(OCCCCCN(CC(=O)O)CC(=O)O)cc2)[C@H]1O` stands 148 to 162 °C; under `CC(=O)NC(C)(C)c1ccc(C(C)O)cc1` (stereo not drawn), 146 to 149 °C.
For `CCCCOCCOc1ccc(-c2ccc3c(c2)C=C(C(=O)O)CCN3CC2CCCCC2)cc1`, the melting point is 124 to 125 °C.
As to `Cc1ccc(-c2cccc(NC(=O)Nc3cccc4c3CC(O)CC4)c2)cc1` (stereo not drawn), the melting point fell in the range of 217 to 219 °C.
In turn, `CCNC(=O)c1cc(N)c(N)cc1OC` yielded a melting point of 65 to 67 °C.
`O=C(Nc1cccc2cnccc12)NC1CC2(CCC2)Oc2c(O)cccc21` (stereo not drawn) displayed a melting point of 246 to 247 °C.
`COc1ccc(C(=O)C2(C)CCC(C(=O)O)C2(C)C)c(OC)c1` (stereo not drawn) yielded a melting point of 134 °C.
`N#Cc1ccc(-c2ccc(-c3ccoc3)cc2)cc1` gave a melting point of 199 to 203 °C.
Molecule `CC(C)(C)OC(=O)N1CCC2(CC1)Cn1cc([N+](=O)[O-])nc1O2` registered a melting point of 230 to 232 °C.
`CCc1cc(N(CC)C(=O)N2CCN(c3cc(C)cc(C)c3)CC2)c(OC)nc1C` yielded a melting point of 84 to 85 °C.
As for `Cc1ccc(S(=O)(=O)NC2CCCCN(c3nc4c(c(=O)n(C)c(=O)n4C)n3Cc3ccccc3)C2)cc1` (stereo not drawn), the melting point is 80.2 to 88.2 °C.
In the case of `COc1ccc(C(=O)Nc2ccccc2)cc1NC(=S)Nc1c(F)c(F)cc(F)c1F`, the melting point was 170 to 174 °C.
`CSCC(=O)c1ccc(O)c(O)c1` displayed a melting point of 107 °C.
The molecule `CCOC(=O)c1c(C)n(-c2ccc(N(CC)CC)cc2)c(C)c(C(=O)OCC)c1=O` registered a melting point of 138 °C.
In turn, `C=CCOC(=O)C1=C2[C@@H](OC)CCC[C@@H]2[C@@H]2[C@@H]([C@H](O)C(F)(F)F)C(=O)N12` came in with a melting point of 78 to 85 °C.
As for `CCOC(=O)c1cc(-n2c(OCC)nc(C(F)(F)F)cc2=O)c(F)cc1Cl`, the melting point was 94 to 96 °C.
Under `CC(=O)OC1CN=C(C)NC1` (stereo not drawn) stands 141 to 146 °C.
The figure for `N#CCC1OC(n2cnc3c(NN4CCC(Sc5ccccc5)CC4)nc(Cl)nc32)C(O)C1O` (stereo not drawn) is 159 to 161 °C; for `COc1ccc(C(=O)Nc2ccc(C(C)(C)CN3CCOC3=O)cc2)cc1OC` it is 190 to 191 °C.
